Results published in PubChem BioAssay AID272 (DTP/NCI, 2004).
Where “and” joins values, the source holds several entries; their conditions need not be identical. Identical values can stand only once. Records with an inconclusive call do not appear.

Tested on: Lewis lung carcinoma i.m., BDF1 mice, T/C %
Assay: NCI In Vivo Anticancer Drug Screen. Data for tumor model Lewis Lung Carcinoma (intramuscular) in B6D2F1 (BDF1) mice
Procedure, shortened: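 Antitumour activity is assessed in transplanted-tumour mice. Endpoint is survival or tumour size, normalised to vehicle-dosed controls (T/C).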

SMILES: CCN(CC)Cc1cc(Nc2c3ccccc3nc3cc(Cl)ccc23)ccc1O
- T/C (endpoint: mean tumor weight (est.), dose: 35.0 mg/kg/injection, schedule: Q01DX011 (ip), vehicle: saline, higher = larger tumour): 79 % of control

SMILES: ClC1(c2ccccc2)c2ccc(Br)cc2-c2cc(Br)ccc21
- T/C (endpoint: mean tumor weight (est.), dose: 100.0 mg/kg/injection, schedule: Q01DX011 (ip), vehicle: saline, higher = larger tumour): 53 % of control
- T/C (endpoint: mean tumor weight (est.), dose: 200.0 mg/kg/injection, schedule: Q01DX011 (ip), vehicle: saline, higher = larger tumour): 40 % of control
- T/C (endpoint: median survival time, dose: 100.0 mg/kg/injection, schedule: Q01DX011 (ip), vehicle: saline, higher = longer survival): 88 % of control
- T/C (endpoint: median survival time, dose: 200.0 mg/kg/injection, schedule: Q01DX011 (ip), vehicle: saline, higher = longer survival): 88 % of control

SMILES: CCCCOc1ccc(NC(N)=Nc2ccc(Cl)cc2)cc1
- T/C (endpoint: mean tumor weight (est.), dose: 3.12 mg/kg/injection, schedule: Q01DX011 (ip), vehicle: saline with Tween-80, higher = larger tumour): 118 % of control
- T/C (endpoint: mean tumor weight (est.), dose: 6.25 mg/kg/injection, schedule: Q01DX011 (ip), vehicle: saline with Tween-80, higher = larger tumour): 101 % of control
- T/C (endpoint: mean tumor weight (est.), dose: 12.5 mg/kg/injection, schedule: Q01DX011 (ip), vehicle: saline with Tween-80, higher = larger tumour): 67 % of control
- T/C (endpoint: mean tumor weight (est.), dose: 25.0 mg/kg/injection, schedule: Q01DX011 (ip), vehicle: saline with Tween-80, higher = larger tumour): 58 % of control
- T/C (endpoint: median survival time, dose: 3.12 mg/kg/injection, schedule: Q01DX011 (ip), vehicle: saline with Tween-80, higher = longer survival): 97 % of control
- T/C (endpoint: median survival time, dose: 6.25 mg/kg/injection, schedule: Q01DX011 (ip), vehicle: saline with Tween-80, higher = longer survival): 123 % of control
- T/C (endpoint: median survival time, dose: 12.5 mg/kg/injection, schedule: Q01DX011 (ip), vehicle: saline with Tween-80, higher = longer survival): 102 % of control
- T/C (endpoint: median survival time, dose: 25.0 mg/kg/injection, schedule: Q01DX011 (ip), vehicle: saline with Tween-80, higher = longer survival): 104 % of control

SMILES: CCC[CH2][Sn]1([CH2]CCC)[O]OC(c2ccccc2)[O]1 (stereo not drawn)
- T/C (endpoint: median survival time, dose: 0.5 mg/kg/injection, schedule: Q01DX009 (ip), vehicle: saline, higher = longer survival): 107 % of control
- T/C (endpoint: median survival time, dose: 1.0 mg/kg/injection, schedule: Q01DX009 (ip), vehicle: saline, higher = longer survival): 114 % of control
- T/C (endpoint: median survival time, dose: 2.0 mg/kg/injection, schedule: Q01DX009 (ip), vehicle: saline, higher = longer survival): 106 % of control
- T/C (endpoint: median survival time, dose: 4.0 mg/kg/injection, schedule: Q01DX009 (ip), vehicle: saline, higher = longer survival): 113 % of control

SMILES: N[C@@H](Cc1ccc(N(CCCl)CCCl)cc1)C(=O)O
- T/C (endpoint: mean tumor weight, dose: 0.38 mg/kg/injection, schedule: Q01DX011 (ip), vehicle: other, higher = larger tumour): 55 % of control
- T/C (endpoint: mean tumor weight, dose: 0.38 mg/kg/injection, schedule: Q01DX011 (ip), vehicle: saline, higher = larger tumour): 86 % of control
- T/C (endpoint: mean tumor weight, dose: 0.75 mg/kg/injection, schedule: Q01DX011 (ip), vehicle: other, higher = larger tumour): 48 % of control
- T/C (endpoint: mean tumor weight, dose: 0.75 mg/kg/injection, schedule: Q01DX011 (ip), vehicle: saline, higher = larger tumour): 77 % of control
- T/C (endpoint: mean tumor weight, dose: 1.5 mg/kg/injection, schedule: Q01DX011 (ip), vehicle: other, higher = larger tumour): 69 % of control
- T/C (endpoint: mean tumor weight, dose: 3.0 mg/kg/injection, schedule: Q01DX011 (ip), vehicle: other, higher = larger tumour): 29 % of control
- T/C (endpoint: mean tumor weight, dose: 3.0 mg/kg/injection, schedule: Q01DX011 (ip), vehicle: saline, higher = larger tumour): 47 % of control and 59 % of control
- T/C (endpoint: median survival time, dose: 0.38 mg/kg/injection, schedule: Q01DX011 (ip), vehicle: other, higher = longer survival): 111 % of control
- T/C (endpoint: median survival time, dose: 0.38 mg/kg/injection, schedule: Q01DX011 (ip), vehicle: saline, higher = longer survival): 105 % of control and 112 % of control
- T/C (endpoint: median survival time, dose: 0.6 mg/kg/injection, schedule: Q01DX011 (ip), vehicle: saline, higher = longer survival): 104 % of control and 116 % of control
- T/C (endpoint: median survival time, dose: 0.75 mg/kg/injection, schedule: Q01DX011 (ip), vehicle: other, higher = longer survival): 118 % of control
- T/C (endpoint: median survival time, dose: 0.75 mg/kg/injection, schedule: Q01DX011 (ip), vehicle: saline, higher = longer survival): 110 % of control and 112 % of control and 120 % of control
- T/C (endpoint: median survival time, dose: 1.2 mg/kg/injection, schedule: Q01DX011 (ip), vehicle: saline, higher = longer survival): 108 % of control
- T/C (endpoint: median survival time, dose: 1.5 mg/kg/injection, schedule: Q01DX011 (ip), vehicle: other, higher = longer survival): 101 % of control
- T/C (endpoint: median survival time, dose: 1.5 mg/kg/injection, schedule: Q01DX011 (ip), vehicle: saline, higher = longer survival): 91 % of control
- T/C (endpoint: median survival time, dose: 2.5 mg/kg/injection, schedule: Q01DX011 (ip), vehicle: saline, higher = longer survival): 103 % of control
- T/C (endpoint: median survival time, dose: 3.24 mg/kg/injection, schedule: Q01DX001 (ip), vehicle: saline, higher = longer survival): 108 % of control
- T/C (endpoint: median survival time, dose: 5.4 mg/kg/injection, schedule: Q01DX001 (ip), vehicle: saline, higher = longer survival): 119 % of control

SMILES: COc1cccc2c1C(=O)c1c(O)c3c(c(O)c1C2=O)C[C@@](O)(C(=O)COC(=O)Cc1cccc2ccccc12)C[C@@H]3OC1CC(N)C(O)C(C)O1 (stereo partly drawn)
- T/C (endpoint: median survival time, dose: 0.25 mg/kg/injection, schedule: Q01DX011 (ip), vehicle: other, higher = longer survival): 124 % of control
- T/C (endpoint: median survival time, dose: 0.5 mg/kg/injection, schedule: Q01DX011 (ip), vehicle: other, higher = longer survival): 108 % of control
- T/C (endpoint: median survival time, dose: 1.0 mg/kg/injection, schedule: Q01DX011 (ip), vehicle: other, higher = longer survival): 113 % of control
